Molecules are shown by their SMILES.

The test system of data set [1] is Ehrlich ascites carcinoma. Description: Inhibition of Ehrlich solid tumor in mice, intraperitoneal administration (Table 1). It is filed as in vivo, ddY mice. Details: response vs control in vivo: dose or concentration left out as unconfirmed. As to conditions: for Body weight change: 40 mg/kg i.p. once daily for 7 days; for response vs control in vivo: Mus musculus, ip, 336 h, Ehrlich, day 14, read-out: T/C (average tumor weight ratio between test group and control group). How it is done: (§1) 1. Experiment on the inhibition of Ehrlich solid tumor
Ehrlich ascites carcinoma was subcutaneously inoculated into the right inguinal region of ddY mice (5 weeks old, male, 8 mice per group) with 3×10^6 cells per mouse.
24 Hours after the inoculation, a test drug suspended or dissolved in 5% HCO 60 (a product manufactured by Nikkol) was administered intraperitoneally successively once daily for 7 days. To the control group, the same quantity as above of 5% HCO 60 was intraperitoneally administered in the same manner. Fourteen days after the inoculation, the tumor was excised and weighed, from which the average tumor weight ratio between the test group and the control group (T/C) was determined.

In data set [2] the test system is Ehrlich ascites carcinoma. Description: Inhibition of Ehrlich solid tumor in mice, oral administration starting six days after inoculation (Table 2). It counts as in vivo, ddY mice. How it is done: as §1
Ehrlich ascites carcinoma was subcutaneously inoculated into the inguinal region of ddY mice (5 weeks old, male, 8 mice per group) with 3×10^6 cells per mouse. Six days after the inoculation, a test drug dissolved or suspended in 0.5% CMC solution was administered orally to the test group successively once daily for 10 days, while the same quantity as above of 0.5% CMC solution was orally administered to the control group. Twenty one days after the inoculation, the tumor was excised and weighed, from which the average tumor weight ratio between the test group and the control group (T/C) was determined.

Data set [3] can be described thus: Acute toxicity test (b), oral LD50 (Table 4). As to conditions: mouse, in vivo; oral, 3 weeks, Van der Waerden method. On the procedure: (b) The test compound was suspended in 0.25% CMC solution and administered orally to SLC-ddY mice (5 weeks old, male, 6 mice per group). The number of dead mice was counted over the subsequent 3 weeks. LD50 value was calculated according to the method of Van der Waerden.

Another data set concerns SLC-ddY mice. The note with it: mouse, in vivo. The text has this: (a) The test compound was suspended in 0.25% CMC solution and administered intraperitoneally to SLC-ddY mice (5 weeks old, male, 6 mice per group). The number of dead mice was counted over the subsequent three weeks.

As to `O=C(c1cccc(C(F)(F)F)c1)n1c(=O)c(F)cn([C@H]2C[C@H](O)[C@@H](CO)O2)c1=O` [compound 25], in data set [1], the Body weight change result is on record as “+5.3 g” and the response vs control in vivo is 43%.
On the same counts, the results for `O=C(c1c(F)cccc1F)n1c(=O)c(F)cn([C@H]2C[C@H](O)[C@@H](CO)O2)c1=O` [compound 29] are “+7.9 g” and 41.3%.
On to `O=C(CCl)Nc1ccc(C(=O)n2c(=O)c(F)cn([C@H]3C[C@H](O)[C@@H](CO)O3)c2=O)cc1` [compound 5], for which, in data set [1], the Body weight change result is on record as “+4.8 g” and the response vs control in vivo was determined as 27.5%. The same molecule displayed a Body weight change in data set [2] (60 mg/kg orally once daily for 10 days) of -4.1 g. The “T/C (average tumor weight ratio between test group and control group)” value in data set [2] (60 mg/kg orally once daily for 10 days from day 6, Ehrlich, day 21) was 34.0%.
In the case of `CN(C)c1ccc(C(=O)n2c(=O)c(F)cn([C@H]3C[C@H](O)[C@@H](CO)O3)c2=O)cc1` [compound 21], the LD50 at 504 h in data set [3] is not below 2540 mg/kg. For the same molecule, in data set [1], the Body weight change entry is reported as “+4.7 g” and the response vs control in vivo worked out at 32.4%.
Turning to `O=C(c1cc(Br)cs1)n1c(=O)c(F)cn([C@H]2C[C@H](O)[C@@H](CO)O2)c1=O` [compound 23], in data set [1], the Body weight change result is listed as “+5.3 g” and the response vs control in vivo amounted to 38.8%.
Consider `O=Cc1ccc(C(=O)n2c(=O)c(F)cn([C@H]3C[C@H](O)[C@@H](CO)O3)c2=O)cc1` [compound 14], for which, in data set [1], the Body weight change entry is given as “+7.1 g” and the response vs control in vivo came to 38.1%.
Turning to `N#Cc1ccc(C(=O)n2c(=O)c(F)cn([C@H]3C[C@H](O)[C@@H](CO)O3)c2=O)cc1` [compound 13], in data set [1], the Body weight change entry is recorded as “+7.2 g” and the response vs control in vivo was found to be 36.9%. Moreover, the “Number of dead mice” value in the data set on SLC-ddY mice is “no dead mice”.
In the case of `O=C(c1cccc(Cl)c1)n1c(=O)c(F)cn([C@H]2C[C@H](O)[C@@H](CO)O2)c1=O` [compound 11], in data set [1], the Body weight change result is recorded as “+7.6 g” and the response vs control in vivo stood at 34.3%. Also, the “Number of dead mice” value in the data set on SLC-ddY mice is recorded as “no dead mice”.
Take `O=C(c1ccccc1F)n1c(=O)c(F)cn([C@H]2C[C@H](O)[C@@H](CO)O2)c1=O` [compound 20]: in data set [1], the Body weight change result is listed as “+7.4 g” and the response vs control in vivo amounted to 42.8%.
For `O=C(Nc1ccc(C(=O)n2c(=O)c(F)cn([C@H]3C[C@H](O)[C@@H](CO)O3)c2=O)cc1)C(Cl)Cl` [compound 22], in data set [1], the Body weight change entry is on record as “+6.5 g” and the response vs control in vivo was determined as 41.6%.
On the same counts, the results for `O=C(c1ccc(Br)o1)n1c(=O)c(F)cn([C@H]2C[C@H](O)[C@@H](CO)O2)c1=O` [compound 24] are “+4.7 g” and 42.5%.
For `COC(=O)c1ccc(C(=O)n2c(=O)c(F)cn([C@H]3C[C@H](O)[C@@H](CO)O3)c2=O)cc1` [compound 12], in data set [1], the Body weight change result is “+6.2 g” and the response vs control in vivo was 36.9%.
The corresponding values for `O=C(c1ccc([N+](=O)[O-])cc1)n1c(=O)c(F)cn([C@H]2C[C@H](O)[C@@H](CO)O2)c1=O` [compound 19] are “+5.9 g” and 41.5%.
The corresponding values for `O=C(c1ccc(F)cc1F)n1c(=O)c(F)cn([C@H]2C[C@H](O)[C@@H](CO)O2)c1=O` [compound 28] are “+5.9 g” and 21.7%.
Consider `O=C(c1ccccc1I)n1c(=O)c(F)cn([C@H]2C[C@H](O)[C@@H](CO)O2)c1=O` [compound 8], for which, in data set [1], the Body weight change entry is “+7.6 g” and the response vs control in vivo came out at 33.5%.
Consider `O=C(c1ccccc1Cl)n1c(=O)c(F)cn([C@H]2C[C@H](O)[C@@H](CO)O2)c1=O` [compound 7], for which, in data set [1], the Body weight change entry is “+6.0 g” and the response vs control in vivo is 33.1%.
Consider `O=C(c1cccc2ccccc12)n1c(=O)c(F)cn([C@H]2C[C@H](O)[C@@H](CO)O2)c1=O` [compound 9], for which, in data set [1], the Body weight change entry was “+6.7 g” and the response vs control in vivo worked out at 33.5%.
On to `O=C(CBr)Nc1ccc(C(=O)n2c(=O)c(F)cn([C@H]3C[C@H](O)[C@@H](CO)O3)c2=O)cc1` [compound 26], for which, in data set [1], the Body weight change entry is “+2.3 g” and the response vs control in vivo stood at 35.3%.
On the same counts, the results for `CC(=O)OC[C@H]1O[C@@H](n2cc(F)c(=O)n(C(=O)c3ccc4c(c3)OCO4)c2=O)C[C@@H]1OC(C)=O` [compound 30] are “+6.1 g” and 30.1%.
In the case of `COc1cccc(OC)c1C(=O)n1c(=O)c(F)cn([C@H]2C[C@H](O)[C@@H](CO)O2)c1=O` [compound 18], in data set [1], the Body weight change entry is reported as “+7.8 g” and the response vs control in vivo was 41.5%. The “Number of dead mice” value in the data set on SLC-ddY mice is recorded as “no dead mice”.
In the case of `O=C(c1ccco1)n1c(=O)c(F)cn([C@H]2C[C@H](O)[C@@H](CO)O2)c1=O` [compound 15], in data set [1], the Body weight change entry is listed as “+7.9 g” and the response vs control in vivo turned out to be 39.1%.
The corresponding values for `Cc1ccsc1C(=O)n1c(=O)c(F)cn([C@H]2C[C@H](O)[C@@H](CO)O2)c1=O` [compound 16] are “+6.4 g” and 40.7%.
The corresponding values for `COc1cc(N)c(Cl)cc1C(=O)n1c(=O)c(F)cn([C@H]2C[C@H](O)[C@@H](CO)O2)c1=O` [compound 10] are “+7.3 g” and 34.2%.
`O=C(CCl)Nc1cccc(C(=O)n2c(=O)c(F)cn([C@H]3C[C@H](O)[C@@H](CO)O3)c2=O)c1` [compound 4]: in data set [1], the Body weight change result is “+4.4 g” and the response vs control in vivo was 25.2%.
For the molecule `O=C(c1cc(O)cc(O)c1)n1c(=O)c(F)cn([C@H]2C[C@H](O)[C@@H](CO)O2)c1=O` [compound 17], in data set [1], the Body weight change entry is recorded as “+7.9 g” and the response vs control in vivo amounted to 41%.
In the case of `Cc1ccccc1C(=O)n1c(=O)c(F)cn([C@H]2C[C@H](O)[C@@H](CO)O2)c1=O` [compound 6], in data set [1], the Body weight change entry is on record as “+7.3 g” and the response vs control in vivo was found to be 32.3%.

These data come from patent US4472386A, “5-Fluoro-(β-uridine or 2'-deoxy-β-uridine) derivatives, a process for producing the same and a carcinostatic agent containing the same” (Toyama Chemical Co., Ltd., priority 1978, dated 1984).
